Source: patent US5202309A, “Antibiotic cyclopeptide fermentation product” (Merck & Co., Inc., priority 1991, dated 1993)
Numbered stars: 1 amine (or outer) side, 2 acyl side, 3 side chain; on linkers, the order of the positions; unused ones are H or OH. Bridge positions count the residues as written; N and C are the ends. Square brackets hold non-standard residues; d marks the D form. Peptide text beside a SMILES is read from it. * marks the point of attachment. Orn(4R-OH,5R-OH) = O=C([C@H](C[C@@H](O)[C@@H](O)N[*:3])N[*:1])[*:2]; Tetradecanoyl(10R,12S-Me2) = CC[C@H](C)C[C@H](C)CCCCCCCCC(=O)*; hTyr(3S-OH,4S-OH) = N[C@H](C(=O)O)[C@H](O)[C@@H](O)c1ccc(O)cc1; Gln(3R-OH) = NC(=O)C[C@@H](O)[C@H](N)C(=O)O; Pro(3S-OH) = O=C(O)[C@H]1NCC[C@@H]1O; Hyp = O=C(O)[C@@H]1C[C@@H](O)CN1

What was measured:
Candida parapsilosis = assay: Microbroth dilution assay in YNBD, minimum fungicidal concentration; type: cell-based; settings: Candida parapsilosis MY 1010, 35° C. 24 hours, then Sabouraud dextrose agar 24 hours at 28° C.
Experimental: (§1) The compounds were further diluted to 256 μg/ml in YNBD. […] After incubation, each culture was diluted in sterile water to yield a final concentration of 1-5×10^6 colony forming units (CFU)/ml.

Candida albicans = assay: as above; type: cell-based; settings: then Sabouraud dextrose agar 24 hours at 28° C.
Experimental: as §1

CC[C@H](C)C[C@H](C)CCCCCCCCC(=O)N[C@H]1C[C@@H](O)[C@@H](O)NC(=O)[C@@H]2[C@@H](O)CCN2C(=O)[C@H]([C@H](O)CC(N)=O)NC(=O)[C@H]([C@H](O)[C@@H](O)c2ccc(O)cc2)NC(=O)[C@@H]2C[C@@H](O)CN2C(=O)[C@H]([C@@H](C)O)NC1=O [Compound I, 1-[4,5-dihydroxy-N^2-(10,12-dimethyl-1-oxotetradecyl)ornithine]-5-(3-hydroxy-glutamine)-6-(3-hydroxyproline)echinocandin B] ({Tetradecanoyl(10R,12S-Me2)}-[Orn(4R-OH,5R-OH)]T[Hyp][hTyr(3S-OH,4S-OH)][Gln(3R-OH)][Pro(3S-OH)]; lactam 1-C)
Minimum Fungicidal Concentration (Candida parapsilosis): 8.0 µg/mL
Minimum Fungicidal Concentration (Candida albicans; Candida albicans MY 1208, 35° C. 24 hours): 0.5 µg/mL
Minimum Fungicidal Concentration (Candida albicans; Candida albicans MY 1783, 35° C. 24 hours): 0.5 µg/mL
